Measured values as given in patent publication US20220202739A1, “ENDOCANNABINOID MIMETIC AND ANTI-INFLAMMATORY COMPOUND CONTAINING COMPOSITIONS, METHODS OF PREPARATION AND USES THEREOF” (priority 2019, published 2022).

Tests used:
Type in all cases: cell-based, human
Settings in all cases: pooled keratinocytes, 20 ppm, 24 hr
FLG = assay: Gene expression custom microarray, pooled keratinocyte line (Example 3): FLG
Description: (§1) Cell cultures: Received and began culture of pooled keratinocyte line from Promocell (C-12006; Lot #448Z026). Cells were seeded into a 75 cm2 flask and 2 6 well dishes for expansion and exposure per manufacturer's protocol using Keratinocyte Growth Medium (C2011B), Keratinocyte Supplement Mix (C39016) and CaCl (C34005). 2 ml of prepared solution were added to each of the 6 wells and 7 ml was added to the 75 cm2 flask.
(§2) Experimental phase: When the appropriate quantity of cells were grown, they were detached as described above, but at the final step were seeded into each well of one or more 6 well dishes. Each well received 2 ml of the cells suspended in suspension so they were seeded equally. The dishes were returned to the incubator until 85-95% confluency is reached.
(§3) It was at this stage that all wells were rinsed in PBS after aspirating the growth media. The compound(s) to be tested were previously mixed into a suitable solvent (e.g., DMSO or ethanol) that can be diluted to the desired concentration of test compound (10 μl) in the culture wells without exceeding maximum solvent concentrations and adversely effecting cell viability, and mixed with Basal Keratinocyte Media. NOTE: Standard maximum levels of solvent are 0.1% for DMSO and 0.5% for ETOH. The concentration for each tested compound/natural extract is generally listed in the left-hand column of Table 4. For certain compositions (e.g., compositions 15 and 16), other concentrations were used and are noted in the body of Table 4.
(§4) Every 2 wells on the 6 well plate served as a biological replicate for the purposes of RNA isolation and genetic expression evaluations making each 6 well dish an n=3 for the test compound contained in the media. […]
(§5) At the end of the 24 hr time period, the plates were removed from the incubator, the test media aspirated, and the cells rinsed with PBS. […] Allow 1 minute for saturation of the membrane and then centrifuge for 2 minutes to complete the RNA elution. • Quantify the quantity of RNA and store at −20 C° until use (no more than 1 month) […]

ITGB1 = assay: Gene expression custom microarray, pooled keratinocyte line (Example 3): ITGB1
Description: as §1, §2, §3, §4, §5

JUN = assay: Gene expression custom microarray, pooled keratinocyte line (Example 3): JUN
Description: as §1, §2, §3, §4, §5

MMP1 = assay: Gene expression custom microarray, pooled keratinocyte line (Example 3): MMP1
Description: as §1, §2, §3, §4, §5

SMILES | ↑FLG gene expression, fold increase or decrease vs untreated cells (FLG) | ↑ITGB1 gene expression, fold increase or decrease vs untreated cells (ITGB1) | ↓JUN gene expression, fold increase or decrease vs untreated cells (JUN) | ↓MMP1 gene expression, fold increase or decrease vs untreated cells (MMP1)
C=C(C)[C@@H]1CCC(C)=C[C@H]1c1c(O)cc(CCCCC)cc1O [CBD, cannabidiol, reference compound] | 1.1 fold | 1.8 fold | 2.7 fold | 6.5 fold
CCCCCCCCCCCCCCCC(=O)NCCO [N-palmitoylethanolamide] | 28.6 fold | −4 fold | −1.9 fold | 12.2 fold
CC(C)[C@]12O[C@H]1[C@@H]1O[C@]13[C@]1(O[C@H]1C[C@H]1C4=C(CC[C@@]13C)C(=O)OC4)[C@@H]2O [Triptolide] | 14.4 fold | −14.7 fold | −4.7 fold | 1.2 fold
